Reference: the supplement of paper PMC10307832

Experiments:
Assay in all cases: relative viability (nuclei count vs DMSO), 5 days (fraction); higher = more cells survive
[1] = compound: CN(C)CC1=CC(=CC=C1)N=C(C2=CC=CC=C2)C3=C(NC4=C3C=CC(=C4)C(=O)N(C)C)O + C[C@@H](Oc1cc(-c2cnn(C3CCNCC3)c2)cnc1N)c1c(Cl)ccc(F)c1Cl [Crizotinib] (partner 1 µM)
How it was run: (§1)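 Lung cancer cell lines were pin-tool dosed in 1536-well plates on the day after seeding, with either a lone drug or a fixed anchor-drug dose plus five library-drug doses (not always all listed) in √10 steps. Nuclei were counted on 4× images after 5 days. Relative viability is the ratio of treated-well to vehicle-well nuclei counts, with each value a median of duplicate plates.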

[2] = compound: CN(C)CC1=CC(=CC=C1)N=C(C2=CC=CC=C2)C3=C(NC4=C3C=CC(=C4)C(=O)N(C)C)O + CS(=O)(=O)CCNCc1ccc(-c2ccc3ncnc(Nc4ccc(OCc5cccc(F)c5)c(Cl)c4)c3c2)o1 [Lapatinib] (partner 2 µM)
How it was run: as §1

[3] = compound: CN(C)CC1=CC(=CC=C1)N=C(C2=CC=CC=C2)C3=C(NC4=C3C=CC(=C4)C(=O)N(C)C)O + Nc1ncn([C@H]2C[C@H](O)[C@@H](CO)O2)c(=O)n1 [Decitabine] (partner 2 µM)
How it was run: as §1

[4] = compound: CN(C)CC1=CC(=CC=C1)N=C(C2=CC=CC=C2)C3=C(NC4=C3C=CC(=C4)C(=O)N(C)C)O + Cc1cc(Nc2cc(N3CCN(C)CC3)nc(Sc3ccc(NC(=O)C4CC4)cc3)n2)n[nH]1 [Tozasertib] (partner 0.1 µM)
How it was run: as §1

NCI-H2170
relative viability ([1]; first compound 0.08 µM): 1.2 | relative viability ([1]; first compound 0.253 µM): 1.15 | relative viability ([1]; first compound 0.8 µM): 0.934 | relative viability ([1]; first compound 2.53 µM): 1.11 | relative viability ([1]; first compound 8 µM): 0.922 | relative viability ([2]; first compound 0.08 µM): 0.278 | relative viability ([2]; first compound 0.253 µM): 0.277 | relative viability ([2]; first compound 0.8 µM): 0.286 | relative viability ([2]; first compound 2.53 µM): 0.273 | relative viability ([2]; first compound 8 µM): 0.271 | relative viability ([3]; first compound 0.08 µM): 0.516 | relative viability ([3]; first compound 0.253 µM): 0.487 | relative viability ([3]; first compound 0.8 µM): 0.452 | relative viability ([3]; first compound 2.53 µM): 0.462 | relative viability ([3]; first compound 8 µM): 0.418 | relative viability ([4]; first compound 0.08 µM): 0.749 | relative viability ([4]; first compound 0.253 µM): 0.8 | relative viability ([4]; first compound 0.8 µM): 0.586 | relative viability ([4]; first compound 2.53 µM): 0.679 | relative viability ([4]; first compound 8 µM): 0.609

NCI-H2347
relative viability ([1]; first compound 0.08 µM): 0.734 | relative viability ([1]; first compound 0.253 µM): 0.727 | relative viability ([1]; first compound 0.8 µM): 0.73 | relative viability ([1]; first compound 2.53 µM): 0.703 | relative viability ([1]; first compound 8 µM): 0.58 | relative viability ([2]; first compound 0.08 µM): 1.01 | relative viability ([2]; first compound 0.253 µM): 0.899 | relative viability ([2]; first compound 0.8 µM): 0.975 | relative viability ([2]; first compound 2.53 µM): 0.953 | relative viability ([2]; first compound 8 µM): 0.963 | relative viability ([3]; first compound 0.08 µM): 0.631 | relative viability ([3]; first compound 0.253 µM): 0.634 | relative viability ([3]; first compound 0.8 µM): 0.583 | relative viability ([3]; first compound 2.53 µM): 0.635 | relative viability ([3]; first compound 8 µM): 0.679 | relative viability ([4]; first compound 0.08 µM): 0.615 | relative viability ([4]; first compound 0.253 µM): 0.522 | relative viability ([4]; first compound 0.8 µM): 0.522 | relative viability ([4]; first compound 2.53 µM): 0.56 | relative viability ([4]; first compound 8 µM): 0.603

NCI-H2405
relative viability ([1]; first compound 0.08 µM): 0.808 | relative viability ([1]; first compound 0.253 µM): 0.822 | relative viability ([1]; first compound 0.8 µM): 0.827 | relative viability ([1]; first compound 2.53 µM): 0.775 | relative viability ([1]; first compound 8 µM): 0.758 | relative viability ([2]; first compound 0.08 µM): 1.06 | relative viability ([2]; first compound 0.253 µM): 1.09 | relative viability ([2]; first compound 0.8 µM): 1.15 | relative viability ([2]; first compound 2.53 µM): 0.999 | relative viability ([2]; first compound 8 µM): 0.963 | relative viability ([3]; first compound 0.08 µM): 0.78 | relative viability ([3]; first compound 0.253 µM): 0.77 | relative viability ([3]; first compound 0.8 µM): 0.758 | relative viability ([3]; first compound 2.53 µM): 0.67 | relative viability ([3]; first compound 8 µM): 0.696 | relative viability ([4]; first compound 0.08 µM): 0.748 | relative viability ([4]; first compound 0.253 µM): 0.74 | relative viability ([4]; first compound 0.8 µM): 0.748 | relative viability ([4]; first compound 2.53 µM): 0.662 | relative viability ([4]; first compound 8 µM): 0.645

NCI-H3122
relative viability ([1]; first compound 0.08 µM): 0.281 | relative viability ([1]; first compound 0.253 µM): 0.286 | relative viability ([1]; first compound 0.8 µM): 0.246 | relative viability ([1]; first compound 2.53 µM): 0.318 | relative viability ([1]; first compound 8 µM): 0.29 | relative viability ([2]; first compound 0.08 µM): 0.96 | relative viability ([2]; first compound 0.253 µM): 0.971 | relative viability ([2]; first compound 0.8 µM): 1.01 | relative viability ([2]; first compound 2.53 µM): 0.983 | relative viability ([2]; first compound 8 µM): 0.997 | relative viability ([3]; first compound 0.08 µM): 0.508 | relative viability ([3]; first compound 0.253 µM): 0.387 | relative viability ([3]; first compound 0.8 µM): 0.454 | relative viability ([3]; first compound 2.53 µM): 0.504 | relative viability ([3]; first compound 8 µM): 0.46 | relative viability ([4]; first compound 0.08 µM): 0.416 | relative viability ([4]; first compound 0.253 µM): 0.359 | relative viability ([4]; first compound 0.8 µM): 0.448 | relative viability ([4]; first compound 2.53 µM): 0.383 | relative viability ([4]; first compound 8 µM): 0.438

PC-3 [JPC-3]
relative viability ([1]; first compound 0.08 µM): 0.968 | relative viability ([1]; first compound 0.253 µM): 0.983 | relative viability ([1]; first compound 0.8 µM): 0.824 | relative viability ([1]; first compound 2.53 µM): 0.985 | relative viability ([1]; first compound 8 µM): 1.07 | relative viability ([2]; first compound 0.08 µM): 0.436 | relative viability ([2]; first compound 0.253 µM): 0.458 | relative viability ([2]; first compound 0.8 µM): 0.435 | relative viability ([2]; first compound 2.53 µM): 0.465 | relative viability ([2]; first compound 8 µM): 0.444 | relative viability ([3]; first compound 0.08 µM): 0.761 | relative viability ([3]; first compound 0.253 µM): 0.763 | relative viability ([3]; first compound 0.8 µM): 0.804 | relative viability ([3]; first compound 2.53 µM): 0.837 | relative viability ([3]; first compound 8 µM): 0.842 | relative viability ([4]; first compound 0.08 µM): 0.877 | relative viability ([4]; first compound 0.253 µM): 0.855 | relative viability ([4]; first compound 0.8 µM): 0.854 | relative viability ([4]; first compound 2.53 µM): 0.814 | relative viability ([4]; first compound 8 µM): 0.922
